According to publication PMC4312132, “Phenylalanine in the Pore of the Erwinia Ligand-Gated Ion Channel Modulates Picrotoxinin Potency but Not Receptor Function” (Biochemistry, 2014):
Where two headings read alike, the source gives them in different places.

Experiments:
[1] = test system: ELIC with mutations of residues 2′ and 6′; conditions: mutations of residues 2′ and 6′ in ELIC; cited from earlier work
F16′A mutant ELIC = conditions: F16′A mutant vs wild type; as previously shown; cited from earlier work
wild type ELIC = biological target: T1, wild type ELIC (Dickeya chrysanthemi, UniProt P0C7B7); experiment: GABA activation of wild-type ELIC, two-electrode voltage clamp in Xenopus oocytes; assay type: cell-based, Erwinia chrysanthemii
T1 construct: expressed in transfected cells; host or cells: Xenopus laevis oocytes (cRNA injection)
T1 sequence (P0C7B7 whole entry): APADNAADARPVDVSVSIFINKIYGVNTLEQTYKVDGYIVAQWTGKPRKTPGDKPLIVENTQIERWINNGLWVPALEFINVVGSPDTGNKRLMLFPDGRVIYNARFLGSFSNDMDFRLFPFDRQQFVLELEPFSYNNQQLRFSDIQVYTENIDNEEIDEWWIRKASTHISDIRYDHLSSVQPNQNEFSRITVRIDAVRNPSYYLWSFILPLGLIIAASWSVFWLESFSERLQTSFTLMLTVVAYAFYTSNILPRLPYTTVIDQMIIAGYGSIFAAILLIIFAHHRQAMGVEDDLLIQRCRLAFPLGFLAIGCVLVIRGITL
Procedure: (§1) Xenopus laevis oocyte-positive females were purchased from NASCO (Fort Atkinson, WI) and maintained according to standard methods. Harvested stage V and VI Xenopus oocytes were washed in four changes of Ca^2+-free ND96 [96 mM NaCl, 2 mM KCl, 1 mM MgCl2, and 5 mM HEPES (pH 7.5)], defolliculated in 1.5 mg mL^–1 collagenase type 1A for approximately 2 h, washed again in four changes of ND96, and stored in ND96 at 16 °C containing 2.5 mM sodium pyruvate, […] gentamycin, and 0.7 mM theophylline.
ELIC (GenBank accession number ADN00343.1) was kindly provided by C. Ulens. For expression in Xenopus oocytes, it was cloned into pGEMHE with the signal sequence of the human α7 nACh receptor. Site-directed mutagenesis was performed with the QuikChange mutagenesis kit (Stratagene, La Jolla, CA). cRNA was transcribed in vitro from the linearized pGEMHE cDNA template using the mMessage mMachine T7 transcription kit (Ambion, Austin, TX). Stage V and VI oocytes were injected with 20 ng of cRNA, and currents were recorded 1–3 days postinjection.
Using two-electrode voltage clamp, Xenopus oocytes were clamped at −60 mV using an OC-725 amplifier (Warner Instruments, Hamden, CT), Digidata 1322A, and the Strathclyde Electrophysiology Software Package (Department of Physiology and Pharmacology, University of Strathclyde, Glasgow, U.K.). Currents were recorded at 5 kHz and filtered at a frequency of 1 kHz. Microelectrodes were fabricated from borosilicate glass (GC120TF-10, Harvard Apparatus, Edenbridge, Kent, U.K.) using a one-stage horizontal pull (P-87, Sutter Instrument Co., Novato, CA) and filled with 3 M KCl. Pipette resistances ranged from 1.0 to 2.0 MΩ. Oocytes were perfused with ND96 at a constant rate of 12 mL min^–1 with complete solution exchange within 5 s. Drug application was accomplished via a simple gravity-fed system calibrated to run at the same rate. Inhibition by test compounds was measured at the GABA EC50 for each mutant.
Analysis and curve fitting were performed using Prism version 4.03 (GraphPad Software, San Diego, CA). […]

Q2′A ELIC = biological target: T2, Q2′A ELIC (Dickeya chrysanthemi, UniProt P0C7B7, Q232A); experiment: GABA activation of Q2′A ELIC, two-electrode voltage clamp in Xenopus oocytes; assay type: cell-based, Erwinia chrysanthemii; conditions: Q2′A receptors
T2 construct: expressed in transfected cells; host or cells: Xenopus laevis oocytes (cRNA injection)
T2 sequence (P0C7B7 whole entry Q232A): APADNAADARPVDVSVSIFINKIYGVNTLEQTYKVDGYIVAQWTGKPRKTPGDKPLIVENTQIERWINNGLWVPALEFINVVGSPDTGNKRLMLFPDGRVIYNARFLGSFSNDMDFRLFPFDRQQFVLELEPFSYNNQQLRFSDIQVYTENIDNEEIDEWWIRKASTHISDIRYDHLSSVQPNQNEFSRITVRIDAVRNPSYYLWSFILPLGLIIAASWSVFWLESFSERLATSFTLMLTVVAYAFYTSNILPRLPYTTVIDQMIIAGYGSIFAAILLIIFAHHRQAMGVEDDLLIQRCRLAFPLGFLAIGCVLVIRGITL
Procedure: as §1
(§2) ELIC (GenBank accession number ADN00343.1) was kindly provided by C. Ulens. For expression in Xenopus oocytes, it was cloned into pGEMHE with the signal sequence of the human α7 nACh receptor. […] Stage V and VI oocytes were injected with 20 ng of cRNA, and currents were recorded 1–3 days postinjection.
(§3) Using two-electrode voltage clamp, Xenopus oocytes were clamped at −60 mV using an OC-725 amplifier (Warner Instruments, Hamden, CT), Digidata 1322A, and the Strathclyde Electrophysiology Software Package (Department of Physiology and Pharmacology, University of Strathclyde, Glasgow, U.K.). Currents were recorded at 5 kHz and filtered at a frequency of 1 kHz. […] Inhibition by test compounds was measured at the GABA EC50 for each mutant. […]

Q2′N ELIC = biological target: T3, Q2′N ELIC (Dickeya chrysanthemi, UniProt P0C7B7, Q232N); experiment: GABA activation of Q2′N ELIC, two-electrode voltage clamp in Xenopus oocytes; assay type: cell-based, Erwinia chrysanthemii; conditions: Q2′N ELIC; GABA concentration–response
T3 construct: expressed in transfected cells; host or cells: Xenopus laevis oocytes (cRNA injection)
T3 sequence (P0C7B7 whole entry Q232N): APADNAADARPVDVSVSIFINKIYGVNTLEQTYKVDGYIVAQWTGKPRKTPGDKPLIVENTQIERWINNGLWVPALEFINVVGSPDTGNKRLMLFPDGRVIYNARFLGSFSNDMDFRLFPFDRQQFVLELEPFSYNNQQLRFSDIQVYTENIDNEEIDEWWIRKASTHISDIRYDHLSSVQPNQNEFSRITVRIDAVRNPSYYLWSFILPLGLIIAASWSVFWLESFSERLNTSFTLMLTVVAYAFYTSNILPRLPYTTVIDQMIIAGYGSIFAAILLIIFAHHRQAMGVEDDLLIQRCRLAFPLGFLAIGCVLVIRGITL

T6′A ELIC = biological target: T4, T6′A ELIC (Dickeya chrysanthemi, UniProt P0C7B7, T236A); experiment: GABA activation of T6′A ELIC, two-electrode voltage clamp in Xenopus oocytes; assay type: cell-based, Erwinia chrysanthemii; conditions: T6′A ELIC; GABA concentration–response
T4 construct: expressed in transfected cells; host or cells: Xenopus laevis oocytes (cRNA injection)
T4 sequence (P0C7B7 whole entry T236A): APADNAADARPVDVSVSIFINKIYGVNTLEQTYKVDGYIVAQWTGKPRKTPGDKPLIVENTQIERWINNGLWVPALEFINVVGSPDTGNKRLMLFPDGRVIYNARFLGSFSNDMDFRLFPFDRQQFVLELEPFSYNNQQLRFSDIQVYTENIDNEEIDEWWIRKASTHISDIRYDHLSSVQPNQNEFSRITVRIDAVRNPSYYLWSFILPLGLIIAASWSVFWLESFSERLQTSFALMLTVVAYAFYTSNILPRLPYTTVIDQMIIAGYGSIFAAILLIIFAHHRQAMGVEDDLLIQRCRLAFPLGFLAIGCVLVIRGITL

T6′S ELIC = biological target: T5, T6′S ELIC (Dickeya chrysanthemi, UniProt P0C7B7, T236S); experiment: GABA activation of T6′S ELIC, two-electrode voltage clamp in Xenopus oocytes; assay type: cell-based, Erwinia chrysanthemii; conditions: T6′S ELIC; GABA concentration–response
T5 construct: expressed in transfected cells; host or cells: Xenopus laevis oocytes (cRNA injection)
T5 sequence (P0C7B7 whole entry T236S): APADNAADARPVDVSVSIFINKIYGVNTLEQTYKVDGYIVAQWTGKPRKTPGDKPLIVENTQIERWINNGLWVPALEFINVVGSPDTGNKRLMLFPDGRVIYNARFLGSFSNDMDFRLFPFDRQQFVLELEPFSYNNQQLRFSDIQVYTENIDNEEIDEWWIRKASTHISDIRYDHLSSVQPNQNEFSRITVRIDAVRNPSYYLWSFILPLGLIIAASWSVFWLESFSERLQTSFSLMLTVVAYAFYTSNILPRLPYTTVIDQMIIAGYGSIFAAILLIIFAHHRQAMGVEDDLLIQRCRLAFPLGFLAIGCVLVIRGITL

F16′A ELIC = biological target: T6, F16′A ELIC (Dickeya chrysanthemi, UniProt P0C7B7, F246A); experiment: GABA activation of F16′A ELIC, two-electrode voltage clamp in Xenopus oocytes; assay type: cell-based, Erwinia chrysanthemii; conditions: F16′A ELIC; GABA concentration–response
T6 construct: expressed in transfected cells; host or cells: Xenopus laevis oocytes (cRNA injection)
T6 sequence (P0C7B7 whole entry F246A): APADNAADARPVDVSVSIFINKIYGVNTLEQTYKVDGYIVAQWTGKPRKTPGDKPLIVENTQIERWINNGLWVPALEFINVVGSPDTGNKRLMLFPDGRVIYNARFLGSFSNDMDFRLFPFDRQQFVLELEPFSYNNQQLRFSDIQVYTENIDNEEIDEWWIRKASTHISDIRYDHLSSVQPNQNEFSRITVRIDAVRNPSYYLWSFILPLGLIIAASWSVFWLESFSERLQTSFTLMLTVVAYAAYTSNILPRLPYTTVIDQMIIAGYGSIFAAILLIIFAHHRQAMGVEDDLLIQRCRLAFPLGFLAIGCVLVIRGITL
Procedure: as §1, §2, §3

F16′D ELIC = biological target: T7, F16′D ELIC (Dickeya chrysanthemi, UniProt P0C7B7, F246D); experiment: GABA activation of F16′D ELIC, two-electrode voltage clamp in Xenopus oocytes; assay type: cell-based, Erwinia chrysanthemii; conditions: F16′D ELIC; GABA concentration–response
T7 construct: expressed in transfected cells; host or cells: Xenopus laevis oocytes (cRNA injection)
T7 sequence (P0C7B7 whole entry F246D): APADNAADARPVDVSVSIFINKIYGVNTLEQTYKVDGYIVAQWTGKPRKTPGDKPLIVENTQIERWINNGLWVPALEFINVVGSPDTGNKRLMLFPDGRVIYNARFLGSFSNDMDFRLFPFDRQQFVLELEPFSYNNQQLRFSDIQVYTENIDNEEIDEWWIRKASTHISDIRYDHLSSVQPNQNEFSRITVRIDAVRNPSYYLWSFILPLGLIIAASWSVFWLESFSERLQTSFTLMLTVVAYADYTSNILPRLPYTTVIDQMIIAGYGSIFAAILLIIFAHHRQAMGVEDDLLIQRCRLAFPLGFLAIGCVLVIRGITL

F16′E ELIC = biological target: T8, F16′E ELIC (Dickeya chrysanthemi, UniProt P0C7B7, F246E); experiment: GABA activation of F16′E ELIC, two-electrode voltage clamp in Xenopus oocytes; assay type: cell-based, Erwinia chrysanthemii
T8 construct: expressed in transfected cells; host or cells: Xenopus laevis oocytes (cRNA injection)
T8 sequence (P0C7B7 whole entry F246E): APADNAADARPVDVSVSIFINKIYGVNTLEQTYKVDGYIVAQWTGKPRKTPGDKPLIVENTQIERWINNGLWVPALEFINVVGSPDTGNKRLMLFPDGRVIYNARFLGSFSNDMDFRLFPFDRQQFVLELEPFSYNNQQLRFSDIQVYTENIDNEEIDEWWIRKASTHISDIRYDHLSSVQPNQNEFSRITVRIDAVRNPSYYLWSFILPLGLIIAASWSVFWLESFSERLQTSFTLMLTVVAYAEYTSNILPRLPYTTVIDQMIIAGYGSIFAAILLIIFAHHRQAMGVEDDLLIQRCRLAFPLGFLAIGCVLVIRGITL
Procedure: as §1, §2, §3

F16′Q ELIC = biological target: T9, F16′Q ELIC (Dickeya chrysanthemi, UniProt P0C7B7, F246Q); experiment: GABA activation of F16′Q ELIC, two-electrode voltage clamp in Xenopus oocytes; assay type: cell-based, Erwinia chrysanthemii; conditions: F16′Q ELIC; GABA concentration–response
T9 construct: expressed in transfected cells; host or cells: Xenopus laevis oocytes (cRNA injection)
T9 sequence (P0C7B7 whole entry F246Q): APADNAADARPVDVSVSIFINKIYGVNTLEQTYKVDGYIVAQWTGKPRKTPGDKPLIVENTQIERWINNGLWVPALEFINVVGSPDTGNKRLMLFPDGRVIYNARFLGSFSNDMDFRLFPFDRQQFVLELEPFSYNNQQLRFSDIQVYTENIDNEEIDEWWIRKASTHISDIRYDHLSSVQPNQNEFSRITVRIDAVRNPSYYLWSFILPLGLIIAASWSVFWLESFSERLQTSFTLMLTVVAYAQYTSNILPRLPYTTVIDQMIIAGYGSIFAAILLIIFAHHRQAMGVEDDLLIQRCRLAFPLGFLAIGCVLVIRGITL

F16′L ELIC = biological target: T10, F16′L ELIC (Dickeya chrysanthemi, UniProt P0C7B7, F246L); experiment: GABA activation of F16′L ELIC, two-electrode voltage clamp in Xenopus oocytes; assay type: cell-based, Erwinia chrysanthemii
T10 construct: expressed in transfected cells; host or cells: Xenopus laevis oocytes (cRNA injection)
T10 sequence (P0C7B7 whole entry F246L): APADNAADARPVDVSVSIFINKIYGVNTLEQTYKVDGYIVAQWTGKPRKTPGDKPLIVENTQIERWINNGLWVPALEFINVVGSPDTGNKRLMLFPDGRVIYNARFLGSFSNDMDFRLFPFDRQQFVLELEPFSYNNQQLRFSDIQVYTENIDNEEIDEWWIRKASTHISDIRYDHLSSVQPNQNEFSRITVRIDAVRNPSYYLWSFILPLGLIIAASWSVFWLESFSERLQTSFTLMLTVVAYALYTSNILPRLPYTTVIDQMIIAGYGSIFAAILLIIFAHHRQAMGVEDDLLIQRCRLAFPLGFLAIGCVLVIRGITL
Procedure: as §1, §2, §3

F16′S ELIC = biological target: T11, F16′S ELIC (Dickeya chrysanthemi, UniProt P0C7B7, F246S); experiment: GABA activation of F16′S ELIC, two-electrode voltage clamp in Xenopus oocytes; assay type: cell-based, Erwinia chrysanthemii; conditions: F16′S ELIC; GABA concentration–response
T11 construct: expressed in transfected cells; host or cells: Xenopus laevis oocytes (cRNA injection)
T11 sequence (P0C7B7 whole entry F246S): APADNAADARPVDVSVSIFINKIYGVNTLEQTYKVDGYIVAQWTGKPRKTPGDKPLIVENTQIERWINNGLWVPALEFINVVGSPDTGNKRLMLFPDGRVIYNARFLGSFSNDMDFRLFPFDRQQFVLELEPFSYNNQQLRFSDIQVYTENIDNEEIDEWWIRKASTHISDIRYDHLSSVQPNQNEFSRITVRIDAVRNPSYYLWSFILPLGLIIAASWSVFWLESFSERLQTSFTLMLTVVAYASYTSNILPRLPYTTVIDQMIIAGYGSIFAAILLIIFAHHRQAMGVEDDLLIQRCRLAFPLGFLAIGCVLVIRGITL

F16′T ELIC = biological target: T12, F16′T ELIC (Dickeya chrysanthemi, UniProt P0C7B7, F246T); experiment: GABA activation of F16′T ELIC, two-electrode voltage clamp in Xenopus oocytes; assay type: cell-based, Erwinia chrysanthemii; conditions: F16′T ELIC; GABA concentration–response
T12 construct: expressed in transfected cells; host or cells: Xenopus laevis oocytes (cRNA injection)
T12 sequence (P0C7B7 whole entry F246T): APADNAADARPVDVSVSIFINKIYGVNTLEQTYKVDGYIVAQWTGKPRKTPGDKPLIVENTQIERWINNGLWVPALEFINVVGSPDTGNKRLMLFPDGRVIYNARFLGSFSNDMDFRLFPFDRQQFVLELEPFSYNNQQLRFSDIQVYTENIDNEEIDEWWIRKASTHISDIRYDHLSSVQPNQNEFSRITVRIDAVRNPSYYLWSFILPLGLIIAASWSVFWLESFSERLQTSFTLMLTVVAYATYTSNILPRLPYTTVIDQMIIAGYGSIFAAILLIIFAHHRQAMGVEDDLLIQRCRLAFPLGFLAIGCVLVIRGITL

F16′W ELIC = biological target: T13, F16′W ELIC (Dickeya chrysanthemi, UniProt P0C7B7, F246W); experiment: GABA activation of F16′W ELIC, two-electrode voltage clamp in Xenopus oocytes; assay type: cell-based, Erwinia chrysanthemii; conditions: F16′W ELIC; GABA concentration–response
T13 construct: expressed in transfected cells; host or cells: Xenopus laevis oocytes (cRNA injection)
T13 sequence (P0C7B7 whole entry F246W): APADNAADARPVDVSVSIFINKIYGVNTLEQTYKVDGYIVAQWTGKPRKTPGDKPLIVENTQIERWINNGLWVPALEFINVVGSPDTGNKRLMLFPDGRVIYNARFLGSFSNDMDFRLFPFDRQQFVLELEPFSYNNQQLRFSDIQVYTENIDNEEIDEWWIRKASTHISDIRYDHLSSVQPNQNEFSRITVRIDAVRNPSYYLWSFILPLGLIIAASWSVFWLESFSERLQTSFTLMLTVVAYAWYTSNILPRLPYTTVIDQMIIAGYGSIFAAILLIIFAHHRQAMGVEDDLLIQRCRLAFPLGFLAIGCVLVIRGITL

F16′Y ELIC = biological target: T14, F16′Y ELIC (Dickeya chrysanthemi, UniProt P0C7B7, F246Y); experiment: GABA activation of F16′Y ELIC, two-electrode voltage clamp in Xenopus oocytes; assay type: cell-based, Erwinia chrysanthemii; conditions: F16′Y ELIC; GABA concentration–response
T14 construct: expressed in transfected cells; host or cells: Xenopus laevis oocytes (cRNA injection)
T14 sequence (P0C7B7 whole entry F246Y): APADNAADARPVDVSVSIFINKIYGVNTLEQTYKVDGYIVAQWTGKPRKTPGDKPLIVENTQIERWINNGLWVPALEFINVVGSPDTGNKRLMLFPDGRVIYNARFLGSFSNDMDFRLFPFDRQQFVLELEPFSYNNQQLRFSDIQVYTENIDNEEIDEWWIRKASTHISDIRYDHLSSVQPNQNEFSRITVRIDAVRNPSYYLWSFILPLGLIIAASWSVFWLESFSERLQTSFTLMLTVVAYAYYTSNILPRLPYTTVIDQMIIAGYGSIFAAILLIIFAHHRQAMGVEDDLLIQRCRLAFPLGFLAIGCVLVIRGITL

F16′S/T6′S ELIC = biological target: T15, F16′S/T6′S ELIC (Dickeya chrysanthemi, UniProt P0C7B7, F246S/T236S); experiment: GABA activation of F16′S/T6′S ELIC, two-electrode voltage clamp in Xenopus oocytes; assay type: cell-based, Erwinia chrysanthemii; conditions: F16′S/T6′S ELIC; GABA concentration–response
T15 construct: expressed in transfected cells; host or cells: Xenopus laevis oocytes (cRNA injection)
T15 sequence (P0C7B7 whole entry T236S/F246S): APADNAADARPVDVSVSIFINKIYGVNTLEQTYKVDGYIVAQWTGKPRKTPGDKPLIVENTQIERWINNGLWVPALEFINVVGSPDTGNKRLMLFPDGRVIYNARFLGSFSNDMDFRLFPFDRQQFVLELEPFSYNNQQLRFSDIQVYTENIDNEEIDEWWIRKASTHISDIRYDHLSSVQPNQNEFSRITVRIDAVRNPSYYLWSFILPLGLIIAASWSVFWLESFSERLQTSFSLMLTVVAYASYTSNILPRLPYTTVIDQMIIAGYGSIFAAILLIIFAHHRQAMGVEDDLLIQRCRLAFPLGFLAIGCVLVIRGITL

In the case of `O=S1OC[C@@H]2[C@H](CO1)[C@@]1(Cl)C(Cl)=C(Cl)[C@]2(Cl)C1(Cl)Cl` (stereo partly drawn) [α-endosufan], the “inhibition of ELIC” value [1] is listed as “abolish inhibition”.

For `NCCS` [cysteamine], the “fold change in cysteamine EC50” value (F16′A mutant ELIC) is given as < 10 fold.

In the case of `NCCCC(=O)O` [GABA, γ-aminobutyric acid], the “nH (Hill slope)” value (wild type ELIC; GABA concentration–response) is reported as 2.5 ± 0.7, the EC50 (wild type ELIC; oocytes clamped at −60 mV, mean ± SEM, read-out: GABA pEC50 (converted)) is reported as 1660 µM and the EC50 (wild type ELIC; read-out: GABA EC50) is reported as 1600 µM. The “response to application of 100 mM GABA” value (Q2′A ELIC) was “did not respond”, the nH (Q2′N ELIC) was 2.6 ± 1.3 and the nH (T6′A ELIC) was 2.1 ± 0.1. The nH (T6′S ELIC) was 2.7 ± 0.3, the nH (F16′A ELIC) was 3.0 ± 0.5 and the nH (F16′D ELIC) was 2.5 ± 0.3. The “fold increase in EC50 compared to wild type” value (F16′E ELIC; F16′E ELIC vs wild type) was 16 fold, the nH (F16′E ELIC; F16′E ELIC, GABA concentration–response) was 1.3 ± 0.2 and the nH (F16′Q ELIC) was 2.3 ± 0.6. For the same compound, the “fold change in EC50 compared to wild type” value (F16′L ELIC; F16′L ELIC vs wild type) was 32 fold, the nH (F16′L ELIC; F16′L ELIC, GABA concentration–response) was 1.6 ± 0.2 and the nH (F16′S ELIC) was 2.5 ± 0.6. The nH (F16′T ELIC) was 1.8 ± 0.3, the nH (F16′W ELIC) was 3.6 ± 0.5 and the nH (F16′Y ELIC) was 2.1 ± 0.3. The nH (F16′S/T6′S ELIC) was 2.2 ± 0.7.
